Some test systems named below: EKVX; IGROV-1; SK-MEL-5; SNB-75; M14; SF-539; HT-29; DLD-1; HCT-15; HCC 2998; NCI-H226; OVCAR-3; SW-620; SN12C; UACC-62; COLO 205; OVCAR-4; NCI/ADR-RES; MDA-MB-435; MCF7.
What all share (test): DTP human tumour cell line panel, 48 h

Structures are written as SMILES.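 Tested at 5 concentrations; 48 h exposure; 96-well plates; endpoints linearly interpolated, else capped at highest concentration. GI50: concentration for 50% inhibition of growth.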 Calls of active or inactive are those of the source. Cut-off read from the data, not from the text of the source: active = GI50 up to about 1.1 µM and inactive = higher. A value given as a limit tells only on which side of the number the result lay.

As to `CC1CCP(=O)(c2ccccc2)c2ccccc21` (stereo not drawn), the GI50 is > 100 µM (inactive) in the assay with EKVX; > 100 µM (inactive) with IGROV-1; 49.5 µM (inactive) with SK-MEL-5; > 100 µM (inactive) with SNB-75; > 100 µM (inactive) in the assay on M14; 56.1 µM (inactive) in the assay with SF-539. Also, the GI50 was > 100 µM (inactive) in the assay on HT-29; 46.8 µM (inactive) in the assay on DLD-1; 38.1 µM in the assay with HCT-15; 38.8 µM (inactive) with HCC 2998; > 100 µM (inactive) in the assay with NCI-H226; 76.2 µM (inactive) in the assay with OVCAR-3. The GI50 in the assay on SW-620 is > 10 µM (inactive); in the assay with SN12C, 26.2 µM (inactive); in the assay on UACC-62, 52.8 µM (inactive); in the assay on COLO 205, 51.8 µM (inactive); in the assay with OVCAR-4, 38.5 µM (inactive).

`O=C1c2ccoc2C(=O)c2oc(=O)ccc21`: the GI50 was 20.8 µM (inactive) in the assay with EKVX; 19.6 µM (inactive) with IGROV-1; 1.7 µM (inactive) with SK-MEL-5; 6.41 µM (inactive) in the assay with SNB-75; 7.82 µM (inactive) in the assay with M14; 3.45 µM (inactive) with SF-539. For the same compound, the GI50 with HT-29 was 36.4 µM (inactive); in the assay on DLD-1 it was 18.7 µM (inactive); in the assay on HCT-15 it was 12 µM; in the assay with HCC 2998 it was > 45.3 µM (inactive); in the assay on NCI-H226, > 42.6 µM (inactive); in the assay with OVCAR-3, 3.36 µM (inactive). The GI50 with SW-620 was 4.23 µM (inactive); with SN12C, 11.1 µM (inactive); with UACC-62, 17.1 µM (inactive); in the assay on COLO 205, > 41.2 µM (inactive); with OVCAR-4, 5.13 µM (inactive).

As to `N#CC1(C#N)C2(c3ccccc3)OC(c3ccccc3)(c3cc4ccccc4cc32)C1(C#N)C#N`, the GI50 was 16.6 µM (inactive) in the assay on EKVX; 14.8 µM (inactive) in the assay with IGROV-1; 14.3 µM (inactive) in the assay with SK-MEL-5; 13 µM (inactive) in the assay with SNB-75; 10.6 µM (inactive) in the assay with M14; 16.1 µM (inactive) in the assay with SF-539. Also, the GI50 was 14.8 µM (inactive) in the assay with HT-29; 8.73 µM (inactive) in the assay on DLD-1; 21 µM (inactive) in the assay on NCI/ADR-RES; 17.1 µM (inactive) in the assay with MDA-MB-435; 12.2 µM in the assay with HCT-15; 18.5 µM (inactive) in the assay with HCC 2998. In addition, the GI50 with NCI-H226 is 12.6 µM (inactive); with MCF7 it was 5.38 µM (inactive); in the assay with OVCAR-3 it was 13.9 µM (inactive); in the assay with SW-620 it was 2.62 µM (inactive); in the assay with SN12C, 16.6 µM (inactive); with UACC-62, 17.7 µM (inactive). The GI50 in the assay with COLO 205 was 6.17 µM (inactive); in the assay with OVCAR-4, 11.4 µM (inactive).

As for `COc1cc2c(cc1OC)C(Cl)C(c1ccc(Br)cc1)=C2Cl` (stereo not drawn), the GI50 in the assay on EKVX is 10.6 µM (inactive); with IGROV-1 it was 11.9 µM (inactive); in the assay with SK-MEL-5, 14.4 µM (inactive); in the assay on SNB-75, 13.3 µM (inactive); in the assay on M14, 11.2 µM (inactive); in the assay with SF-539, 12.4 µM (inactive). The GI50 was 13.3 µM (inactive) with HT-29; 12.7 µM (inactive) in the assay with DLD-1; 10.9 µM (inactive) in the assay with NCI/ADR-RES; 4.37 µM (inactive) in the assay with MDA-MB-435; 8.18 µM with HCT-15; 13.3 µM (inactive) in the assay with HCC 2998. For the same compound, the GI50 in the assay with NCI-H226 is 11.3 µM (inactive); in the assay with MCF7, 7.21 µM (inactive); in the assay with OVCAR-3, 9.84 µM (inactive); in the assay with SW-620, 9.51 µM (inactive); with SN12C, 10.6 µM (inactive); with UACC-62 it was 11.2 µM (inactive). Also, the GI50 in the assay on COLO 205 is 14.4 µM (inactive); in the assay on OVCAR-4 it was 13.8 µM (inactive).

Take `CCC(=O)C1=C(OC(C)=O)C2Cc3c(n(C)c4ccccc34)C(C1)N2C` (stereo not drawn): the GI50 was 64.3 µM (inactive) in the assay on EKVX; 29.9 µM (inactive) in the assay with IGROV-1; 28.2 µM (inactive) in the assay with SK-MEL-5; 25.5 µM (inactive) with SNB-75; 37.8 µM (inactive) in the assay with M14; 16.7 µM (inactive) in the assay on SF-539. Also, the GI50 in the assay on HT-29 is 30.8 µM (inactive); with DLD-1 it was 23.8 µM (inactive); in the assay on HCT-15, 18.7 µM; with HCC 2998, 38 µM (inactive); with NCI-H226, > 100 µM (inactive); with OVCAR-3 it was 22.9 µM (inactive). The GI50 in the assay with SW-620 is 26.1 µM (inactive); in the assay with SN12C it was 25.3 µM (inactive); in the assay on UACC-62, 26.2 µM (inactive); in the assay with COLO 205 it was 34 µM (inactive); in the assay with OVCAR-4, 28.4 µM (inactive).

`CC(C)c1cccc(C(C)C)c1NC(=S)NN=C1C=C(C(C)(C)C)C(=O)C(C(C)(C)C)=C1`: the GI50 is 33.5 µM (inactive) in the assay with EKVX; 26 µM (inactive) with IGROV-1; 21 µM (inactive) in the assay with SK-MEL-5; 21.2 µM (inactive) in the assay with SNB-75; 41.6 µM (inactive) in the assay with M14; 19.9 µM (inactive) in the assay with SF-539. Moreover, the GI50 in the assay with HT-29 was 33 µM (inactive); in the assay with DLD-1, 36.4 µM (inactive); in the assay on HCT-15, 37.3 µM; in the assay on HCC 2998, 23.5 µM (inactive); with NCI-H226 it was 10 µM (inactive); in the assay on OVCAR-3 it was 22.5 µM (inactive). Moreover, the GI50 was 28.5 µM (inactive) in the assay with SW-620; 22.2 µM (inactive) in the assay with SN12C; 20.3 µM (inactive) in the assay on UACC-62; 20.1 µM (inactive) in the assay with COLO 205; 17.3 µM (inactive) in the assay with OVCAR-4.

Source of the values: ChEMBL document CHEMBL1201862, “PubChem BioAssay data set” (2004).
